# PMC4965013, “Open Source Drug Discovery with the Malaria Box Compound Collection for Neglected Diseases and Beyond” (PLoS Pathogens, 2016)
# Like-named read-outs stand apart in the source and are kept apart here.
# Columns and labels:
# [1] = test system: HIV-1 JR-FL or HIV-1 NL4-3 viruses; test: HIV-1 viral production p24 ELISA; type: cell-based; conditions: 10µM
# Experimental: (§1) Columns FK-GB, Moore group (data presented first in this paper). HIV and HIV-producing cell lines, toxicity and viral suppression. […] MMV compounds were incubated with HIV-1 JR-FL or HIV-1 NL4-3 pseudoviruses and U87-CD4-CCR5 or U87-CD4-CXCR4 cells (obtained through the NIH AIDS Reagent Program, Division of AIDS, NIAID, NIH: U87 CD4+CCR5+ Cells from Dr. HongKui Deng and Dr. Dan R. Littman) respectively for 3 days. Cells were assayed for infection by luciferase production (Bright-Glo Luciferase Substrate, Promega) and cell viability by MTT assay. […] MMV compounds were next incubated with HIV-1 JR-FL or HIV-1 NL4-3 viruses and U87-CD4-CCR5 or U87-CD4-CXCR4 cells respectively for 7 days. Cell supernatants were assayed for viral production by p24 ELISA [153] and cell viability by MTT assay. […] DMSO (5%) was completely toxic to all cells (based on visual inspection) and served as the positive control for MTT assays.
# [2] = test system: HIV-1 JR-FL or HIV-1 NL4-3 pseudoviruses; test: HIV-1 pseudovirus infection luciferase; type: cell-based; conditions: 10µM
# Experimental: as §1
# [3] = test system: P. falciparum NF54 GFP-Pfs16 gametocytes stage IV-V; conditions: ref [71]; cited from earlier work
# P. falciparum 3D7 or K1 = test: Asexual Blood Stage Imaging Assay (DAPI) V. Avery; type: cell-based
# [4] = test system: P. falciparum NF54 GFP-Pfs16 gametocytes stage I-III; conditions: ref [71]; cited from earlier work
# P. falciparum HB3 = test: Stage-specificity / mitochondrial integrity image assay Ayong; type: cell-based; conditions: 10µM
# P. falciparum = test: EC50 listed in S2 Table Metabolomics (used to set the concentration tested); type: cell-based; conditions: Plasmodium falciparum; EC50 used for Factor_XEC50 in metabolomics; read-out: EC50_nM
# P. falciparum Dd2 = test: Malaria Sybr Green I Fluorescence assay Dd2 Horrocks; type: cell-based; conditions: Plasmodium falciparum, DD2, 48 h; read-out: P. falciparum Dd2 asexual blood stage EC50 Horrocks
# Experimental: Column S: Horrocks group (data presented first in this paper). Asexual Dd2 inhibition of growth (IC50s): IC50 for the Dd2 clone of Plasmodium falciparum were determined using the Malaria Sybr Green I Fluorescence assay. Drug assays were initiated using a 2% trophozoite stage parasitaemia and 2% hematocrit and fluorescence measured after 48 h as fully described in Hasenkamp et al.[53]. Log dose-response curves were plotted in GraphPad Prism (v5.0). The controls for Dd2 using our 48hr Sybr Green I assay were (rounded to nearest nM): Chloroquine 209nM, Mefloquine 11nM, Quinine 246nM, Dihydroartemisinin 4nM, Artemether 10nM, Atovaquone 3nM.
# [5] = test system: P. falciparum 3D7 trophozoites; test: Metabolomic fingerprint profiling LC-MS; type: cell-based, Plasmodium falciparum; set-up: UDP-D-glucose / ADP-D-glucose: unit not given here
# [6] = test system: Naegleria fowleri trophozoites; test: Naegleria fowleri CellTiter-Glo; type: cell-based
# Source text: Columns CY-CZ: Kyle group (data presented first in this paper). Naegleria fowleri trophozoite growth inhibition. Methods: The CellTiter-Glo (CTG) 2.0 luminescent assay is a quantitative assay that assesses the presence of cellular ATP in lysed cells, displaying an output in Relative Light Units (RLU’s). This was previously standardised, for the growth and development of Naegleria fowleri trophozoites in-vitro to assess drug susceptibility on this parasite. […] These included two drug-like molecules MMV665807 (St. Jude’s Children’s Hospital) and MMV665979 (The Genomics Institute of the Novartis Research Foundation - GNF) and two Probe-like molecules, MMV006203 (GNF) & MMV006172 (GNF; GlaxoSmithKline - GSK). […] However, these Malaria Box compounds were all toxic to zebrafish and mammalian cells.
# Chromera velia = Chromera velia flagellation motility assay
# [7] = Plasmodium falciparum, read-out: P. falciparum 3D7 asexual blood stage EC50 (Image) V. Avery
# [8] = Plasmodium falciparum, read-out: P. falciparum K1 asexual blood stage EC50 (Image) V. Avery
# [9] = metabolite level change after treatment
smiles,measurement,setting,value
"Cc1cn([C@H]2C[C@H](N=[N+]=[N-])[C@@H](CO)O2)c(=O)[nH]c1=O [AZT, reference compound]","viral infection by p24 production, positive control",[1],completely blocked viral infection
same,"viral infection by luciferase, positive control",[2],completely blocked viral infection
"CCc1nc(N)nc(N)c1-c1ccc(Cl)cc1 [pyrimethamine, reference compound]","late gametocyte imaging, no activity at",[3],> 40 µM
same,EC50,P. falciparum 3D7 or K1; [7],2 nM
same,EC50,P. falciparum 3D7 or K1; [8],7200 nM
same,"early gametocyte imaging, no activity at",[4],> 40 µM
CC[C@H](C)[C@H](NC(=O)[C@H]([C@@H](C)CC)N(C)C(C)=O)C(=O)N[C@H](C(=O)N[C@@H](CC(C)C)C(=O)[C@@]1(C)CO1)[C@@H](C)O [epoxomicin],EC50,"P. falciparum 3D7 or K1; 3D7, read-out: P. falciparum 3D7 asexual blood stage EC50 (Image) V. Avery",1 nM
same,EC50,"P. falciparum 3D7 or K1; K1, read-out: P. falciparum K1 asexual blood stage EC50 (Image) V. Avery",2 nM
"CC(=O)N[C@@H]1[C@@H](O)[C@H](O)[C@@H](CO)O[C@H]1O [GlcNAC, N-acetylglucosamine, reference compound]","Effects on asexual life cycle progression (treatment at ER, LR, T, S; merozoites; mitochondrial integrity)",P. falciparum HB3,LR-o-o-o-X-o
COc1ccc2nc3cc(Cl)ccc3c(Nc3cc(CN4CCCC4)c(O)c(CN4CCCC4)c3)c2n1 [pyronaridine],EC50,P. falciparum 3D7 or K1; [7],3 nM
same,EC50,P. falciparum 3D7 or K1; [8],5 nM
"O=C1C(O)=C([C@H]2CC[C@H](c3ccc(Cl)cc3)CC2)C(=O)c2ccccc21 [Atovaquone, reference compound]",EC50,P. falciparum,1 nM
same,EC50,P. falciparum Dd2,3 nM
same,Acetyllysine,"[5]; S2 Table Metabolomics, metabolite Acetyllysine",-0.04735
same,N-acetyl-L-ornithine,"[5]; S2 Table Metabolomics, metabolite N-acetyl-L-ornithine",-0.04174
same,N-carbamoyl-L-aspartate,"[5]; S2 Table Metabolomics, metabolite N-carbamoyl-L-aspartate",3.574
same,NADPH,"[5]; S2 Table Metabolomics, metabolite NADPH",0.3866
same,dAMP,"[5]; S2 Table Metabolomics, metabolite dAMP",-0.09487
same,dCMP,"[5]; S2 Table Metabolomics, metabolite dCMP",0.3344
same,dTDP,"[5]; S2 Table Metabolomics, metabolite dTDP",-0.7104
same,dTMP,"[5]; S2 Table Metabolomics, metabolite dTMP",-0.4179
same,dTTP,"[5]; S2 Table Metabolomics, metabolite dTTP",-0.8198
same,dihydroorotate,"[5]; S2 Table Metabolomics, metabolite dihydroorotate",4.214
same,orotate,"[5]; S2 Table Metabolomics, metabolite orotate",-0.07211
same,DLH,"[5]; S2 Table Metabolomics, peptide DLH",-0.06109
same,DLS/SDL/SID,"[5]; S2 Table Metabolomics, peptide DLS/SDL/SID",-0.04893
same,PD,"[5]; S2 Table Metabolomics, peptide PD",0.1235
same,PEE,"[5]; S2 Table Metabolomics, peptide PEE",-0.1722
same,PVNF,"[5]; S2 Table Metabolomics, peptide PVNF",-0.41
same,3-phosphoglycerate,"[5]; metabolite 3-phosphoglycerate, S2 Table Metabolomics",0.03739
same,ADP-D-glucose,"[5]; metabolite ADP-D-glucose, S2 Table Metabolomics",0.08423
same,ATP,"[5]; metabolite ATP, S2 Table Metabolomics",0.06271
same,CDP,"[5]; metabolite CDP, S2 Table Metabolomics, change in metabolite level after compound treatment",-0.5138
same,D-sedoheptulose-1/7-phosphate,"[5]; metabolite D-sedoheptulose-1/7-phosphate, S2 Table Metabolomics, change in metabolite level after compound treatment",0.1418
same,FAD,"[5]; metabolite FAD, S2 Table Metabolomics",0.1027
same,GMP,"[5]; metabolite GMP, S2 Table Metabolomics, change in metabolite level after compound treatment",0.1184
same,NAD+,"[5]; metabolite NAD+, S2 Table Metabolomics",0.1854
same,NADP+,"[5]; metabolite NADP+, S2 Table Metabolomics",0.1184
same,Octoluse Bisphosphate,"[5]; metabolite Octoluse Bisphosphate, S2 Table Metabolomics, change in metabolite level after compound treatment",-0.059
same,Pyroglutamic acid,"[5]; metabolite Pyroglutamic acid, S2 Table Metabolomics",0.08924
same,UDP-D-glucose,"[5]; metabolite UDP-D-glucose, S2 Table Metabolomics",0.001015
same,UDP-D-glucuronate,"[5]; metabolite UDP-D-glucuronate, S2 Table Metabolomics",-0.0616
same,UDP-N-acetyl-glucosamine,"[5]; metabolite UDP-N-acetyl-glucosamine, S2 Table Metabolomics",-0.1593
same,UDP,"[5]; metabolite UDP, S2 Table Metabolomics, change in metabolite level after compound treatment",-0.7439
same,UMP,"[5]; metabolite UMP, S2 Table Metabolomics, change in metabolite level after compound treatment",-0.8555
same,UTP,"[5]; metabolite UTP, S2 Table Metabolomics, change in metabolite level after compound treatment",-1.1527
same,a-ketoglutarate,"[5]; metabolite a-ketoglutarate, S2 Table Metabolomics",-0.0182
same,citrate/isocitrate,"[5]; metabolite citrate/isocitrate, S2 Table Metabolomics, change in metabolite level after compound treatment",-0.0966
same,cytidine,"[5]; metabolite cytidine, S2 Table Metabolomics",0.2964
same,dATP,"[5]; metabolite dATP, S2 Table Metabolomics",0.2506
same,dGMP/AMP,"[5]; metabolite dGMP/AMP, S2 Table Metabolomics, change in metabolite level after compound treatment",-0.116
same,fumarate,"[5]; metabolite fumarate, S2 Table Metabolomics, change in metabolite level after compound treatment",0.379
same,glucose-1/6-phosphate,"[5]; metabolite glucose-1/6-phosphate, S2 Table Metabolomics, change in metabolite level after compound treatment",0.3695
same,glycerate,"[5]; metabolite glycerate, S2 Table Metabolomics, change in metabolite level after compound treatment",0.1345
same,guanine,"[5]; metabolite guanine, S2 Table Metabolomics, change in metabolite level after compound treatment",0.3762
same,guanosine,"[5]; metabolite guanosine, S2 Table Metabolomics, change in metabolite level after compound treatment",0.6121
same,hypoxanthine,"[5]; metabolite hypoxanthine, S2 Table Metabolomics",0.2162
same,indole,"[5]; metabolite indole, S2 Table Metabolomics",0.1728
same,inosine,"[5]; metabolite inosine, S2 Table Metabolomics, change in metabolite level after compound treatment",0.1672
same,2_3-Diphosphoglyceric acid,[5]; [9],-0.09802
same,4-phosphopantothenate,[5]; [9],-0.2334
same,6-phospho-D-gluconate,[5]; [9],0.01237
same,FMN,[5]; [9],-0.003621
same,IMP,[5]; [9],0.3101
same,Pyrophosphate,[5]; [9],-0.1571
same,Sedoheptoluse bisphosphate,[5]; [9],0.01404
same,cyclic-AMP,[5]; [9],-0.03093
same,glutathione disulfide,[5]; [9],0.00323
same,lactate,[5]; [9],0.02673
same,myo-inositol,[5]; [9],0.3272
same,nicotinate,"[5]; metabolite nicotinate, S2 Table Metabolomics",0.1461
same,ornithine,"[5]; metabolite ornithine, S2 Table Metabolomics",0.1076
same,phosphoenolpyruvate,"[5]; metabolite phosphoenolpyruvate, S2 Table Metabolomics",0.02037
same,pyruvate,"[5]; metabolite pyruvate, S2 Table Metabolomics, change in metabolite level after compound treatment",-0.07747
same,ribose-phosphate,"[5]; metabolite ribose-phosphate, S2 Table Metabolomics",0.1578
same,sarcosine/alanine,"[5]; metabolite sarcosine/alanine, S2 Table Metabolomics, change in metabolite level after compound treatment",-0.1241
same,sn-glycerol-3-phosphate,"[5]; metabolite sn-glycerol-3-phosphate, S2 Table Metabolomics",0.1524
same,succinate/methylmalonic acid,"[5]; metabolite succinate/methylmalonic acid, S2 Table Metabolomics, change in metabolite level after compound treatment",-0.1814
same,uridine,"[5]; metabolite uridine, S2 Table Metabolomics, change in metabolite level after compound treatment",-0.1824
same,xanthosine,"[5]; metabolite xanthosine, S2 Table Metabolomics, change in metabolite level after compound treatment",0.05904
FC(F)(F)c1cccc(CNC2CCN(CCc3ccccc3)CC2)c1 [MMV665979],Naegleria fowleri hit in words,[6],outstanding hit
same,EC50,[6]; Naegleria fowleri,190 nM
CO[C@H]1O[C@@H]2O[C@@]3(C)CC[C@H]4[C@H](C)CC[C@@H]([C@H]1C)[C@@]24OO3 [Artemether],EC50,P. falciparum Dd2,10 nM
OC(c1cc(C(F)(F)F)nc2c(C(F)(F)F)cccc12)C1CCCCN1 (stereo not drawn) [Mefloquine],EC50,P. falciparum Dd2,11 nM
"Oc1cc(Cl)ccc1Oc1ccc(Cl)cc1Cl [triclosan, reference compound]",C. velia flagellation score,Chromera velia; 0.1 µM,+
same,C. velia flagellation score,Chromera velia; 1µM,0
C=C[C@H]1C[N@@]2CC[C@H]1C[C@H]2[C@H](O)c1ccnc2ccc(OC)cc12 [Quinine],EC50,P. falciparum Dd2,246 nM
